# Laboratory results as given in patent US20230364118A1, “RIBITOL TREATMENT” (priority 2020, published 2023).
# How the values were obtained:
# [1] = 7-day repeat-dose oral toxicokinetics; format: in vivo, CD-1 mouse; settings: for Cmax / Tmax / AUC(0-t): CD-1, mouse, plasma, po; for AUC(0-t): read-out: AUC0-24
# Protocol: Toxicokinetics were evaluated as part of a 7-day oral repeat-dose dose range finding study in CD-1 mice. […] On Days 1 and 7, blood was collected for plasma toxicokinetics (TK) from the treatment groups at 0 (pre-first dose), 0.5, 2, 4, 6 (pre-second dose), 6.5, 8, 10, 12, and 24 hours post-first dose. In the vehicle control group, blood was collected for plasma TK on Day 1 and Day 7 at 0.5 and 6.5 hours post-first dose.
# [2] = Phase 1 SAD/MAD study in healthy subjects; format: in vivo, human; settings: for Cmax / Tmax / AUC(0-t): human, in vivo, oral, steady state, 6 days; for AUC(0-t): read-out: AUC(0-24)
# Excerpt: The study described below is a randomized, blinded, placebo-controlled, parallel group study of the administration of single ascending doses (SAD) and multiple ascending doses (MAD) of ribitol to healthy subjects. The SAD part of this study includes 1 food effect (FE) cohort. The SAD and MAD phases of the study are nested.
# Up to a maximum of 6 cohorts will be enrolled. The starting dose will be 0.5 g. Tentative dose levels will be 1.5 g, 3 g, 6 g, and 12 g, however, actual dose increments (including possible decrements) for Cohorts 2 and above will be determined by the safety review committee (SRC) and based on a minimum of 24 h of post dose PK data and at least 72 h post dose safety data from the previous dose level. A sentinel dosing plan will be employed at each dose level where the first 2 healthy participants (1 ribitol, 1 placebo) of each cohort will be dosed as sentinels at least 24 h prior to dosing the remaining cohort's participants. Once the informed consent form (ICF) is signed and eligibility criteria are determined, subjects will be admitted to the clinical research unit (CRU) 1 day prior to dosing (Day −1). Continuous cardiac monitoring using telemetry will be performed starting at least 12 h prior to dosing through at least 24 h after dosing.
# Subjects will be admitted to the CRU 1 day prior to dosing (Day −1). On Day 1, subjects will start a 6-day course of orally administered daily study drug together with water after an overnight fast of at least 10 h prior to through at least 4 h after dosing. If dosing occurs more than once per day based on the data from the SAD cohort(s), instructions for dosing and any relaxation of the fasting requirements will be provided in a separate document. Water ad libitum is permitted except 1 h prior to through 1 h after dosing. Subjects will remain in the CRU until Day 8. Vital signs, ECGs, evaluation of AEs and blood draws for PK and safety laboratory tests will be obtained serially (see Schedule of Assessments, below). Subjects will return for an EOS visit on Day 10 (+5 day window allowed).
# In the Phase 1 study, conducted essentially as described above, in Example 3. Subject in the single dose arm received 0.5, 1.5, 3, 6, 9, 12, or 15 grams of ribitol (data not shown). […] Subjects in the multiple dose arm received 1.5 g once daily, 3 g once daily, 3 g twice daily (q 12 h), 6 g twice daily (q 12 h), and 9 g twice daily (q 12 h). Subjects in the 3 g BID arm achieved steady-state AUC(0-24) values about the target threshold set by animal studies (182 μg*h/mL).
# Clinical studies were performed as described in Example 3, with the exception that two additional doses of ribitol (9 g and 15 g) were administered in the SAD arm, i.e., the SAD doses were 0.5 g, 1.5 g, 3 g, 6 g, 9 g, 12 g, and 15 g ribitol.
# [3] = Metabolic stability in liver microsomes, cytosol, hepatocytes; format: in vitro ADME
# Protocol: Metabolic stability of ribitol was conducted in liver microsomes, cytosol, and primary hepatocytes, from CD-1 mouse, Sprague-Dawley rat, Gottingen minipig, and human at a concentration of ribitol of 10 μM.
# in vivo = experiment: in vivo; design: species or system mouse
# [4] = female, 0.5 g/kg, 0.5 g/kg/dose BID, Day 1, F
# [5] = female, 0.5 g/kg, 0.5 g/kg/dose BID, Day 7, F
# [6] = female, 1 g/kg, 1.0 g/kg/dose BID, Day 1, F
# [7] = female, 1 g/kg, 1.0 g/kg/dose BID, Day 7, F
# [8] = female, 1.5 g/kg, 1.5 g/kg/dose BID, Day 1, F
# [9] = female, 1.5 g/kg, 1.5 g/kg/dose BID, Day 7, F
# [10] = male, 0.5 g/kg, 0.5 g/kg/dose BID, Day 1, M
# [11] = male, 0.5 g/kg, 0.5 g/kg/dose BID, Day 7, M
# [12] = male, 1 g/kg, 1.0 g/kg/dose BID, Day 1, M
# [13] = male, 1 g/kg, 1.0 g/kg/dose BID, Day 7, M
# [14] = male, 1.5 g/kg, 1.5 g/kg/dose BID, Day 1, M
# [15] = male, 1.5 g/kg, 1.5 g/kg/dose BID, Day 7, M
# [16] = 3 g, 3 g q 12 h (total 6 g/day)
# [17] = 6 g q 12 h, 6 g q 12 h (total 12 g/day)
# [18] = 9 g, 9 g q 12 h (total 18 g/day)
# [19] = single doses 0.5, 1.5, 3, 6, 9, 12, 15 g
# [20] = CD-1, mouse, liver cytosol, Cytosol
# [21] = CD-1, mouse, liver microsomes, Microsomes
# [22] = CD-1, mouse, primary hepatocytes, Hepatocytes
# [23] = Gottingen, minipig, liver cytosol, Cytosol
# [24] = Gottingen, minipig, liver microsomes, Microsomes
# [25] = Gottingen, minipig, primary hepatocytes, Hepatocytes
# [26] = Sprague-Dawley, rat, liver cytosol, Cytosol
# [27] = Sprague-Dawley, rat, liver microsomes, Microsomes
# [28] = Sprague-Dawley, rat, primary hepatocytes, Hepatocytes
# [29] = human, liver microsomes, Microsomes
# [30] = human, primary hepatocytes, Hepatocytes
smiles,measurement,setting,value
"OC[C@@H](O)[C@@H](O)[C@@H](O)CO [ribitol, (2R,3s,4S)-Pentane-1,2,3,4,5-pentol]",drug accumulation,"[1]; Day 7 vs Day 1, any dose level",no apparent drug accumulation
same,time of maximum plasma concentrations,"[1]; after the first dose, Days 1 and 7 (exception females 0.5 g/kg BID Day 1)",6.5 h
same,Cmax,[1]; [4],141 µg/mL
same,Tmax,[1]; [4],0.5 h
same,AUC(0-t),[1]; [4],298 µg·h/mL
same,Cmax,[1]; [5],100 µg/mL
same,Tmax,[1]; [5],6.5 h
same,AUC(0-t),[1]; [5],218 µg·h/mL
same,Cmax,[1]; [6],282 µg/mL
same,Tmax,[1]; [6],6.5 h
same,AUC(0-t),[1]; [6],427 µg·h/mL
same,Cmax,[1]; [7],210 µg/mL
same,Tmax,[1]; [7],6.5 h
same,AUC(0-t),[1]; [7],319 µg·h/mL
same,Cmax,[1]; [8],339 µg/mL
same,Tmax,[1]; [8],6.5 h
same,AUC(0-t),[1]; [8],504 µg·h/mL
same,Cmax,[1]; [9],266 µg/mL
same,Tmax,[1]; [9],6.5 h
same,AUC(0-t),[1]; [9],602 µg·h/mL
same,Cmax,[1]; [10],121 µg/mL
same,Tmax,[1]; [10],6.5 h
same,AUC(0-t),[1]; [10],246 µg·h/mL
same,Cmax,[1]; [11],118 µg/mL
same,Tmax,[1]; [11],6.5 h
same,AUC(0-t),[1]; [11],170 µg·h/mL
same,Cmax,[1]; [12],265 µg/mL
same,Tmax,[1]; [12],6.5 h
same,AUC(0-t),[1]; [12],414 µg·h/mL
same,Cmax,[1]; [13],237 µg/mL
same,Tmax,[1]; [13],6.5 h
same,AUC(0-t),[1]; [13],345 µg·h/mL
same,Cmax,[1]; [14],316 µg/mL
same,Tmax,[1]; [14],6.5 h
same,AUC(0-t),[1]; [14],595 µg·h/mL
same,Cmax,[1]; [15],305 µg/mL
same,Tmax,[1]; [15],6.5 h
same,AUC(0-t),[1]; [15],562 µg·h/mL
same,dose linearity with exposure,[2]; SAD 0.5-15 g,confirmed dose linearity with exposure
same,Cmax,"[2]; 1.5 g, 1.5 g once daily",25 µg/mL
same,Tmax,"[2]; 1.5 g, 1.5 g once daily",0.504 h
same,AUC(0-t),"[2]; 1.5 g, 1.5 g once daily",59.8 µg·h/mL
same,Cmax,"[2]; 3 g, 3 g once daily",35.6 µg/mL
same,Tmax,"[2]; 3 g, 3 g once daily",0.503 h
same,AUC(0-t),"[2]; 3 g, 3 g once daily",95 µg·h/mL
same,Cmax,[2]; [16],38 µg/mL
same,Tmax,[2]; [16],0.501 h
same,AUC(0-t),[2]; [16],219 µg·h/mL
same,Cmax,[2]; [17],107 µg/mL
same,Tmax,[2]; [17],0.75 h
same,AUC(0-t),[2]; [17],500 µg·h/mL
same,Cmax,[2]; [18],143 µg/mL
same,Tmax,[2]; [18],0.501 h
same,AUC(0-t),[2]; [18],673 µg·h/mL
same,dose limiting toxicity,[2]; [19],no dose limiting toxicity was observed
same,tolerability,[2]; [19],well tolerated
same,CLint scaled at 10 μM,[3]; [20],4.75 mL/min/kg
same,half-life at 10 μM,[3]; [20],9.63 h
same,CLint scaled at 10 μM,[3]; [21],< 29.3 mL/min/kg
same,half-life at 10 μM,[3]; [21],> 3.12 h
same,CLint scaled at 10 μM,[3]; [22],< 22.6 mL/min/kg
same,half-life at 10 μM,[3]; [22],> 6.07 h
same,CLint scaled at 10 μM,[3]; [23],2.71 mL/min/kg
same,half-life at 10 μM,[3]; [23],3.27 h
same,CLint scaled at 10 μM,[3]; [24],< 5.56 mL/min/kg
same,half-life at 10 μM,[3]; [24],> 3.12 h
same,CLint scaled at 10 μM,[3]; [25],< 9.16 mL/min/kg
same,half-life at 10 μM,[3]; [25],> 6.07 h
same,CLint scaled at 10 μM,[3]; [26],4.83 mL/min/kg
same,half-life at 10 μM,[3]; [26],4.3 h
same,CLint scaled at 10 μM,[3]; [27],< 13.3 mL/min/kg
same,half-life at 10 μM,[3]; [27],> 3.12 h
same,CLint scaled at 10 μM,[3]; [28],< 8.89 mL/min/kg
same,half-life at 10 μM,[3]; [28],> 6.07 h
same,CLint scaled at 10 μM,"[3]; human, liver cytosol, Cytosol",1.64 mL/min/kg
same,half-life at 10 μM,"[3]; human, liver cytosol, Cytosol",6.35 h
same,CLint scaled at 10 μM,[3]; [29],< 6.66 mL/min/kg
same,half-life at 10 μM,[3]; [29],> 3.12 h
same,CLint scaled at 10 μM,[3]; [30],< 5.28 mL/min/kg
same,half-life at 10 μM,[3]; [30],> 6.07 h
same,AUC(0-t),"in vivo; CD-1, mouse, po, 0.5 mg/kg/day, AUC(0-24), calculated exposure",182 µg·h/mL
same,AUC(0-t),"in vivo; CD-1, mouse, po, 2 g/kg/day, AUC(0-24), calculated exposure",727 µg·h/mL
same,AUC(0-t),"in vivo; female, CD-1, mouse, po, 3 g/kg/day, Steady-state AUC(0-24)",839 µg·h/mL
same,AUC(0-t),"in vivo; female, mouse, 3 g/kg/day, Steady-state AUC(0-24)",749 µg·h/mL
same,AUC(0-t),"in vivo; male, CD-1, mouse, po, 3 g/kg/day, Steady-state AUC(0-24)",1340 µg·h/mL
same,AUC(0-t),"in vivo; male, mouse, 3 g/kg/day, Steady-state AUC(0-24)",974 µg·h/mL
